We go through two compounds from ChEMBL document CHEMBL1255348, “Susceptibility testing of anidulafungin and voriconazole alone and in combination against conidia and hyphae of Aspergillus spp. under hypoxic conditions” (2008).

In general, MIC refers to the smallest concentration in the dilution series that meets the test's criterion for growth inhibition. Low readings indicate inhibition by little substance, high ones a need for much substance.

Structures are written as SMILES. Values after ≈ are worked out from the molar mass of the structure shown. *1 amine or outer side, *2 acyl side, *3 side chain or, on linkers, in order; H or OH if unused. Where a SMILES comes first, the peptide text is derived from it. Bridges are numbered along the chain shown (N, C = ends). [ ]: non-standard residue; d: D form. The star is where a group is joined. pTerphenylCO(4''-OnC5H11) = CCCCCOc1ccc(-c2ccc(-c3ccc(C(=O)*)cc3)cc2)cc1; Orn(4R-OH,5R-OH) = O=C([C@H](C[C@@H](O)[C@@H](O)N[*:3])N[*:1])[*:2]; hTyr(3S-OH,4S-OH) = N[C@H](C(=O)O)[C@H](O)[C@@H](O)c1ccc(O)cc1; Pro(3S-OH,4S-Me) = C[C@H]1CN[C@H](C(=O)O)[C@H]1O; Hyp = O=C(O)[C@@H]1C[C@@H](O)CN1

Common to all, as to assay type: functional
Assay [1] concerns Aspergillus niger. The assay can be described thus: Antimicrobial activity against Aspergillus niger conidia isolated from aspergillosis patient after 48 hrs under hypoxic condition by broth microdilution method. A general note: Dilution methods test growth across graded concentrations, often in twofold steps.
Assay [2] has as its system Aspergillus flavus. The assay can be described thus: Antimicrobial activity against Aspergillus flavus hyphae isolated from aspergillosis patient after 48 hrs under hypoxic condition by broth microdilution method.
In assay [3] the test system is Aspergillus terreus. The assay can be described thus: Antimicrobial activity against Aspergillus terreus conidia isolated from aspergillosis patient after 48 hrs under hypoxic condition by broth microdilution method in presence of voriconazole.
Assay [4] has as its system Aspergillus terreus. The experiment in a line: Antimicrobial activity against Aspergillus terreus conidia isolated from aspergillosis patient after 48 hrs under hypoxic condition by broth microdilution method.
Assay [5] relates to Aspergillus niger. The assay can be described thus: Antimicrobial activity against Aspergillus niger hyphae isolated from aspergillosis patient after 48 hrs under hypoxic condition by broth microdilution method.
In assay [6] the test system is Aspergillus fumigatus. The assay can be described thus: Antimicrobial activity against Aspergillus fumigatus conidia isolated from aspergillosis patient after 48 hrs under hypoxic condition by broth microdilution method in presence of voriconazole.
In assay [7] the test system is Aspergillus flavus. The assay can be described thus: Antimicrobial activity against Aspergillus flavus hyphae isolated from aspergillosis patient after 48 hrs under hypoxic condition by broth microdilution method in presence of voriconazole.
Assay [8] has as its system Aspergillus fumigatus. The assay can be described thus: Antimicrobial activity against Aspergillus fumigatus conidia isolated from aspergillosis patient after 48 hrs under hypoxic condition by broth microdilution method.
For assay [9], the system named is Aspergillus niger. The assay can be described thus: Antimicrobial activity against Aspergillus niger conidia isolated from aspergillosis patient after 48 hrs under hypoxic condition by broth microdilution method in presence of voriconazole.
Assay [10] relates to Aspergillus fumigatus. The assay can be described thus: Antimicrobial activity against Aspergillus fumigatus hyphae isolated from aspergillosis patient after 48 hrs under hypoxic condition by broth microdilution method in presence of voriconazole.
The test system of assay [11] is Aspergillus terreus. The assay can be described thus: Antimicrobial activity against Aspergillus terreus hyphae isolated from aspergillosis patient after 48 hrs under hypoxic condition by broth microdilution method in presence of voriconazole.
Assay [12] deals with Aspergillus flavus. The experiment in a line: Antimicrobial activity against Aspergillus flavus conidia isolated from aspergillosis patient after 48 hrs under hypoxic condition by broth microdilution method in presence of voriconazole.
For assay [13], the system named is Aspergillus niger. The assay can be described thus: Antimicrobial activity against Aspergillus niger hyphae isolated from aspergillosis patient after 48 hrs under hypoxic condition by broth microdilution method in presence of voriconazole.
Assay [14] relates to Aspergillus flavus. The experiment in a line: Antimicrobial activity against Aspergillus flavus conidia isolated from aspergillosis patient after 48 hrs under hypoxic condition by broth microdilution method.
For assay [15], the system named is Aspergillus fumigatus. The experiment in a line: Antimicrobial activity against Aspergillus fumigatus hyphae isolated from aspergillosis patient after 48 hrs under hypoxic condition by broth microdilution method.
Assay [16] has as its system Aspergillus terreus. The experiment in a line: Antimicrobial activity against Aspergillus terreus hyphae isolated from aspergillosis patient after 48 hrs under hypoxic condition by broth microdilution method.

Turning to `CCCCCOc1ccc(-c2ccc(-c3ccc(C(=O)N[C@H]4C[C@@H](O)[C@@H](O)NC(=O)[C@@H]5[C@@H](O)[C@@H](C)CN5C(=O)[C@H]([C@@H](C)O)NC(=O)[C@H]([C@H](O)[C@@H](O)c5ccc(O)cc5)NC(=O)[C@@H]5C[C@@H](O)CN5C(=O)[C@H]([C@@H](C)O)NC4=O)cc3)cc2)cc1` [ANIDULAFUNGIN] ({pTerphenylCO(4''-OnC5H11)}-[Orn(4R-OH,5R-OH)]T[Hyp][hTyr(3S-OH,4S-OH)]T[Pro(3S-OH,4S-Me)]; lactam 1-C), the minimal inhibitory concentration (MIC) with Aspergillus niger [1] turned out to be 0.008 µg/mL (≈ 0.00702 µM); with Aspergillus flavus [2], 0.03 µg/mL (≈ 0.0263 µM); in the assay on Aspergillus terreus [4], 0.01 µg/mL (≈ 0.00877 µM); against Aspergillus niger [5], 0.01 µg/mL (≈ 0.00877 µM); in the assay with Aspergillus fumigatus [8], 0.01 µg/mL (≈ 0.00877 µM); against Aspergillus flavus [14] it was 0.06 µg/mL (≈ 0.0526 µM). The results for the minimal inhibitory concentration (MIC) in the assay on Aspergillus fumigatus [15] and in the assay on Aspergillus terreus [16] were 0.03 µg/mL (≈ 0.0263 µM) and 0.01 µg/mL (≈ 0.00877 µM), respectively. In addition, the “fractional inhibitory concentration index (FICI)” value is 0.9 in the assay on Aspergillus terreus [3]; 0.7 in the assay with Aspergillus fumigatus [6]; 1 in the assay with Aspergillus flavus [7]; 0.5 in the assay on Aspergillus niger [9]; 1 with Aspergillus fumigatus [10]; 0.8 with Aspergillus terreus [11]. In addition, the “fractional inhibitory concentration index (FICI)” value with Aspergillus flavus [12] and in the assay with Aspergillus niger [13] was 0.7 each time.

For `C[C@@H](c1ncncc1F)[C@](O)(Cn1cncn1)c1ccc(F)cc1F` [VORICONAZOLE], the MIC in the assay with Aspergillus niger [1] amounted to 1 µg/mL (≈ 2.86 µM); in the assay on Aspergillus flavus [2] it was 2 µg/mL (≈ 5.73 µM); against Aspergillus terreus [4] it was 1 µg/mL (≈ 2.86 µM); against Aspergillus niger [5], 1 µg/mL (≈ 2.86 µM); against Aspergillus fumigatus [8], 0.5 µg/mL (≈ 1.43 µM); in the assay with Aspergillus flavus [14], 1 µg/mL (≈ 2.86 µM). Besides, the MIC in the assay on Aspergillus fumigatus [15] and in the assay on Aspergillus terreus [16] was 1 µg/mL (≈ 2.86 µM) each time.
